Data as given in patent publication US8207347B2, “Pyridone derivatives as NK3 antagonists” (H. Lundbeck A/S, priority 2009, dated 2012).

Tested on: not given
Test: not given
Conditions: Nature reviews, 4, 967-975, 2005; cited from earlier work
In the case of CC(=O)N(C)C1(c2ccccc2)CCN(CCC[C@]2(c3ccc(Cl)c(Cl)c3)CCCN(C(=O)c3ccccc3)C2)CC1 [Osanetant, osanetant], the bioavailability is listed as “poor”, the blood-brain barrier penetration is listed as “poor” and the clearance is listed as “relatively high”. The solubility was “poor”.
In the case of CC[C@H](NC(=O)c1c(O)c(-c2ccccc2)nc2ccccc12)c1ccccc1 [talnetant], the bioavailability is listed as “poor”, the blood-brain barrier penetration is listed as “poor” and the clearance is listed as “relatively high”. The solubility was “poor”.

Target: T1, human NK3 receptor (Homo sapiens, UniProt P29371)
T1 construct: expressed in transfected cells
T1 sequence (P29371 1-465): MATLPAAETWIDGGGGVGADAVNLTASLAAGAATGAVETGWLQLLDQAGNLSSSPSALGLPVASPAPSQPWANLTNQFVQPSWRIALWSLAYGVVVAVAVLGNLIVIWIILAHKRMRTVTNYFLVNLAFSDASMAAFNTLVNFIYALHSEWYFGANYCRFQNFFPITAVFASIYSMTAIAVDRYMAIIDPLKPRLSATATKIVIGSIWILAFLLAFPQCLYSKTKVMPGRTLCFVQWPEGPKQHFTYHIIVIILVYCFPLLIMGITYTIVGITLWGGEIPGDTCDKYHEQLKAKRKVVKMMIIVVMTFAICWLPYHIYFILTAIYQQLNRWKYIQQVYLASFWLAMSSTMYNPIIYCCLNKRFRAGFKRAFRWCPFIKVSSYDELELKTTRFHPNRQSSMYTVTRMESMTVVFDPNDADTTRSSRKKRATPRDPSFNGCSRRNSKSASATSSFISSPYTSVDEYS
Test: NK3 receptor binding assay (filter-based competition binding, 3H-AE93103)
Conditions: BHK cell membranes expressing human NK3 receptor; Ki from IC50 by Cheng Prusoff equation; read-out: Affinity (Ki/nM)
Description: BHK cells stably expressing the human NK3 receptor were seeded in harvesting plates in Dulbeccos MEM containing GlutaMax (862 mg/l), 1 mM sodium pyruvate, 10% fetal calf serum, 1% Pen/Strep, 1 mg/ml G418 and were grown at 34° C. in a humidified atmosphere containing 10% CO2. To increase receptor expression, 10 μM trichotatin A was added to the media 24 hours before harvest of the cells at a confluency of app 90%. Prior to the harvesting, the cells were washed twice with PBS without Mg^2+ of Ca^2+ and subsequently scrapped of in 10 ml PBS pr harvesting plate. The cells suspension were centrifuged at 1500×G in three minutes before resuspension in 15 mM Tris-HCl buffer pH 7.5 containing 2 mM MgCl2; 0.3 mM EDTA and 1 mM EGTA (buffer A). The cell suspension was homogenised and subsequently centrifuged at 40000×G in 30 minutes. The membrane-pellet was resuspended in buffer A containing 250 mM sucrose, aliquoted and stored at −80° C.
The assay is performed as a filter-based competition-binding in a 50 mM Tris pH 7.4 assay buffer containing 120 mM NaCl and 3 mM MnCl2. App 0.05 nM ^3H-AE93103 was mixed with test compounds before addition of 0.15 μg of a homogenised NK3 membrane preparation in a total volume of 300 μl. The assay plate is incubated for 90 min at RT before content of the wells is transferred using a cell-harvester to GF/C filter plates, which has been pretreated with 0.1% PEI. The filter is washed 3 times with 1 ml an ice-cold 50 mM Tris buffer, pH 7.4. The filter is dried and added scintillation liquid before the plate is counted in a topcounter 5 minutes pr well.
The total binding, which comprised less than 10% of added radioligand, was defined using assay buffer whereas the non-specific binding was defined in the presence of 1 μM SR142801. The non-specific binding constituted ˜10% of the total binding.
Data points are expressed in percent of the specific binding of ^3H-AE93103 and the […] (concentration causing 50% inhibition of ^3H-AE93103 specific binding) are determined by non-linear regression analysis using a sigmoidal variable slope curve fitting.
CCNn1c(C)c(C(=O)N[C@H](c2cccc(F)c2)C2CCC2)c(C)c(Br)c1=O [Example 2c, 5-Bromo-1-ethylamino-2,4-dimethyl-6-oxo-1,6-dihydro-pyridine-3-carboxylic acid [(S)-cyclobutyl-(3-fluoro-phenyl)-methyl]-amide] showed a Ki of 24 nM.
Work on CCCNn1c(C)c(C(=O)N[C@H](c2ccccc2)C2CCC2)c(C)c(Br)c1=O [Example 1i, 5-Bromo-2,4-dimethyl-6-oxo-1-propylamino-1,6-dihydro-pyridine-3-carboxylic acid ((S)-cyclobutyl-phenyl-methyl)-amide] yielded a Ki of 16 nM.
Compound CCCn1c(C)c(C(=O)N[C@H](c2cccc(F)c2)C2CCC2)c(C)c(Br)c1=O [Example 2d, 5-Bromo-2,4-dimethyl-6-oxo-1-propyl-1,6-dihydro-pyridine-3-carboxylic acid [(S)-cyclobutyl-(3-fluoro-phenyl)-methyl]-amide] has a Ki of 30 nM.
In the case of Cc1c(C(=O)N[C@H](c2cccc(F)c2)C2CCC2)c(C)n(-c2ccccc2)c(=O)c1Br [Example 2a, 5-Bromo-2,4-dimethyl-6-oxo-1-phenyl-1,6-dihydro-pyridine-3-carboxylic acid [(S)-cyclobutyl-(3-fluoro-phenyl)-methyl]-amide], the Ki is reported as 52 nM.
With C#Cc1c(C)c(C(=O)N[C@H](c2cccc(F)c2)C2CCC2)c(C)n(-c2ccccc2)c1=O [Example 3e, 5-Ethynyl-2,4-dimethyl-6-oxo-1-phenyl-1,6-dihydro-pyridine-3-carboxylic acid [(S)-cyclobutyl-(3-fluoro-phenyl)-methyl]-amide] the Ki was 240 nM.
Compound CCCn1c(C)c(C(=O)N[C@H](c2ccccc2)C2CCC2)c(C)c(Br)c1=O [Example 1z, 5-Bromo-2,4-dimethyl-6-oxo-1-propyl-1,6-dihydro-pyridine-3-carboxylic acid ((S)-cyclobutyl-phenyl-methyl)-amide] has a Ki of 36 nM.
Cc1c(C(=O)N[C@H](c2cccc(F)c2)C2CCC2)c(C(F)(F)F)c(Cl)c(=O)n1-c1ccccc1 [Example 2m, 5-Chloro-2-methyl-6-oxo-1-phenyl-4-trifluoromethyl-1,6-dihydro-pyridine-3-carboxylic acid [(S)-cyclobutyl-(3-fluoro-phenyl)-methyl]-amide] gave a Ki of 24 nM.
Compound CCCc1c(C(=O)N[C@H](c2cccc(F)c2)C2CCC2)c(C)n(-c2ccccc2)c(=O)c1Br [Example 2f, 5-Bromo-2-methyl-6-oxo-1-phenyl-4-propyl-1,6-dihydro-pyridine-3-carboxylic acid [(S)-cyclobutyl-(3-fluoro-phenyl)-methyl]-amide] has a Ki of 90 nM.
CCCn1c(C)c(C(=O)N[C@H](c2cc(F)cc(F)c2)C2CCC2)c(C)c(Br)c1=O [Example 1ak, 5-Bromo-2,4-dimethyl-6-oxo-1-propyl-1,6-dihydro-pyridine-3-carboxylic acid [(S)-cyclobutyl-(3,5-difluoro-phenyl)-methyl]-amide] gave a Ki of 49 nM.
Compound Cc1c(C(=O)N[C@H](c2cccc(F)c2)C2CCC2)c(C)n(Cc2ncco2)c(=O)c1C#N [Example 3d, 5-Cyano-2,4-dimethyl-1-oxazol-2-ylmethyl-6-oxo-1,6-dihydro-pyridine-3-carboxylic acid [(S)-cyclobutyl-(3-fluoro-phenyl)-methyl]-amide] has a Ki of 34 nM.
Work on CCc1c(C(=O)N[C@H](c2cccc(F)c2)C2CCC2)c(C)n(-c2ccccc2)c(=O)c1Br [Example 2e, 5-Bromo-4-ethyl-2-methyl-6-oxo-1-phenyl-1,6-dihydro-pyridine-3-carboxylic acid [(S)-cyclobutyl-(3-fluoro-phenyl)-methyl]-amide] yielded a Ki of 50 nM.
For CCCNn1c(C)c(C(=O)N[C@H](c2cccc(F)c2)C2CCC2)c(C)c(C#N)c1=O [Example 3b, 5-Cyano-2,4-dimethyl-6-oxo-1-propylamino-1,6-dihydro-pyridine-3-carboxylic acid [(S)-cyclobutyl-(3-fluoro-phenyl)-methyl]-amide], the Ki was 22 nM.
CCCn1c(C)c(C(=O)N[C@H](c2ccccc2Cl)C2CC2)c(C)c(Br)c1=O [Example 1s, 5-Bromo-2,4-dimethyl-6-oxo-1-propyl-1,6-dihydro-pyridine-3-carboxylic acid [(S)-(2-chloro-phenyl)-cyclopropyl-methyl]-amide] showed a Ki of 67 nM.
Compound Cc1c(C(=O)N[C@H](c2cccc(F)c2)C2CCC2)c(C(F)(F)F)c(Br)c(=O)n1-c1ccccc1 [Example 2g, 5-Bromo-2-methyl-6-oxo-1-phenyl-4-trifluoromethyl-1,6-dihydro-pyridine-3-carboxylic acid [(S)-cyclobutyl-(3-fluoro-phenyl)-methyl]-amide] has a Ki of 7 nM.

Tested on: not given
Test: not given
Conditions: Am. J. Psychiatry, 161, 2004, 975-984; cited from earlier work
In the case of CC(=O)N(C)C1(c2ccccc2)CCN(CCC[C@]2(c3ccc(Cl)c(Cl)c3)CCCN(C(=O)c3ccccc3)C2)CC1 [Osanetant, osanetant], the “effect in clinical trials, in particular on positive symptoms of psychosis” value is listed as “superior to placebo”.

Same assay, conditions: schizophrenics; Curr. Opion. Invest. Drug, 6, 717-721, 2005; cited from earlier work
In the case of CC[C@H](NC(=O)c1c(O)c(-c2ccccc2)nc2ccccc12)c1ccccc1 [talnetant], the “effect on cognitive behaviour in clinical trials” value is given as “ameliorate the cognitive behaviour of schizophrenics”.
